Assay results reported in ChEMBL document CHEMBL2380195 (J Med Chem, 2013).

These compounds were tested against T1, Prostaglandin G/H synthase 2 (Homo sapiens, UniProt P35354) (assay: Inhibition of COX-2 in human whole blood assessed as inhibition of LPS-induced plasma PGE2 level by radioimmunoassay).
T1 sequence (P35354 whole entry): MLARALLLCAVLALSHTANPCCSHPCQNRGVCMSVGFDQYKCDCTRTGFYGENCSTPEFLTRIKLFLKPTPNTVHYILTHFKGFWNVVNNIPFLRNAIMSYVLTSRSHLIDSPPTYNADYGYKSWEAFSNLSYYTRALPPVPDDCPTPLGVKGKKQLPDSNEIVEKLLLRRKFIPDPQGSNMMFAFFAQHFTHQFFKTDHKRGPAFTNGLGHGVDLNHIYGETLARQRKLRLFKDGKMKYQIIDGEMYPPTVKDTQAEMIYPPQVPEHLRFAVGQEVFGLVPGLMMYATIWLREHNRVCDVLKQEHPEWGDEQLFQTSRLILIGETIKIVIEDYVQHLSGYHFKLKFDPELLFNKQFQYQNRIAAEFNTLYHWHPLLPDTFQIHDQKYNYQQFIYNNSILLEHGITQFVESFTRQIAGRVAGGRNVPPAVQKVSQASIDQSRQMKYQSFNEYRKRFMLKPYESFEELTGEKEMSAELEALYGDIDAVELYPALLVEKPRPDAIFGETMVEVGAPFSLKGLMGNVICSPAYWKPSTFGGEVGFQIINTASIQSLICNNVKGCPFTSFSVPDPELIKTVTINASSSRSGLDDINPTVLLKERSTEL

Row | Structure (SMILES) | IC50
1 | OCc1onc(-c2ccc(Cl)o2)c1-c1ccccc1 | > 100 µM
2 | O=C(OCCCN1CCOCC1)c1onc(-c2ccc(Cl)o2)c1-c1ccccc1 | > 100 µM
3 | Cc1onc(C2CCCO2)c1-c1ccccc1 (centres undefined) | > 100 µM
4 | O=C(O)c1c(-c2ccc(Cl)o2)noc1-c1ccccc1 | > 100 µM

More lines, now with the values ahead:

Row | IC50 | Structure (SMILES)
5 | > 100 µM | COC(=O)c1onc(-c2ccc(Cl)o2)c1-c1ccccc1
6 | > 100 µM | COC(=O)c1c(-c2ccc(Cl)o2)noc1-c1ccccc1
7 | > 100 µM | CC(=O)/C(=C(\N)c1ccco1)c1ccccc1
8 | > 100 µM | COC(=O)c1c(-c2ccccc2)noc1-c1ccccc1
9 | 20.4 µM | Cc1onc(-c2ccco2)c1-c1ccccc1
10 | > 100 µM | O=C(O)c1c(-c2ccccc2)noc1-c1ccccc1
11 | 1.1 µM | Cc1onc(-c2ccccc2Cl)c1-c1ccccc1

Each compound was assayed against COX-1/COX-2 (Homo sapiens) (UniProt P35354+P23219) (assay: Selectivity ratio of IC50 for COX-2 in human whole blood to COX-1 in human whole blood).
COX-1/COX-2 (Homo sapiens), sequence (P23219 whole entry, looked up, one chain of several): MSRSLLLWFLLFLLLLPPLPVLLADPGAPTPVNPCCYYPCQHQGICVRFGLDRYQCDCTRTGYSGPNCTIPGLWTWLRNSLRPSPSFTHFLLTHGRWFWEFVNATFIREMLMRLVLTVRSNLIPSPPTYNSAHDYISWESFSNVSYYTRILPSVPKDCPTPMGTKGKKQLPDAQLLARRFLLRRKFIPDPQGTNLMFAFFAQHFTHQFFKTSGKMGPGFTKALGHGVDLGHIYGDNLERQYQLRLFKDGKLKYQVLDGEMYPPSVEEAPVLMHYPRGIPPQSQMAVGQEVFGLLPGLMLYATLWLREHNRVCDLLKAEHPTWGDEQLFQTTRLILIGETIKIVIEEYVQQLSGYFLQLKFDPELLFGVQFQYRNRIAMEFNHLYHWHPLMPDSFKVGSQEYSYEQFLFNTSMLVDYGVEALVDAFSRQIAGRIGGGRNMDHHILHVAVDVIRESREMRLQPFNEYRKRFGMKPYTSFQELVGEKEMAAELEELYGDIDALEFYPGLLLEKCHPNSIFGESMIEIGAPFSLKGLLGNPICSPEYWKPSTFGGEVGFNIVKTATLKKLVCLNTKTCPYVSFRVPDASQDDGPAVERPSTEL
Type: tissue-based

Row | Structure (SMILES) | Ratio IC50
12 | Cc1onc(-c2ccc(Cl)o2)c1-c1ccccc1F | > 52.6
13 | OCc1onc(-c2ccc(Cl)o2)c1-c1ccccc1 | > 23.8

The next lines start with the values.

Row | Ratio IC50 | Structure (SMILES)
14 | > 5.21 | COC(=O)c1onc(-c2ccc(Cl)o2)c1-c1ccccc1
15 | > 5.75 | COC(=O)c1c(-c2ccc(Cl)o2)noc1-c1ccccc1
16 | > 2.7 | CC(=O)/C(=C(\N)c1ccco1)c1ccccc1
17 | > 5.79 | COC(=O)c1c(-c2ccccc2)noc1-c1ccccc1
18 | 9.29 | Cc1onc(-c2ccco2)c1-c1ccccc1
19 | 4.07 | Cc1onc(-c2ccccc2Cl)c1-c1ccccc1

These compounds were tested against Prostaglandin G/H synthase 1 (Homo sapiens, UniProt P23219) (assay: Inhibition of COX-1 in human whole blood assessed as inhibition of serum TXB2 level after 1 hr by radioimmunoassay).
Prostaglandin G/H synthase 1, sequence (P23219 whole entry): as the sequence (P23219 whole entry, looked up, one chain of several) above

Row | Structure (SMILES) | IC50
20 | O=C(OCCCN1CCOCC1)c1onc(-c2ccc(Cl)o2)c1-c1ccccc1 | > 100 µM
21 | Cc1onc(C2CCCO2)c1-c1ccccc1 (centres undefined) | > 100 µM
22 | O=C(O)c1c(-c2ccc(Cl)o2)noc1-c1ccccc1 | > 100 µM

Continued, values first:

Row | IC50 | Structure (SMILES)
23 | 19.2 µM | COC(=O)c1onc(-c2ccc(Cl)o2)c1-c1ccccc1
24 | 17.4 µM | COC(=O)c1c(-c2ccc(Cl)o2)noc1-c1ccccc1
25 | 37 µM | CC(=O)/C(=C(\N)c1ccco1)c1ccccc1
26 | 17.3 µM | COC(=O)c1c(-c2ccccc2)noc1-c1ccccc1
27 | 2.2 µM | Cc1onc(-c2ccco2)c1-c1ccccc1
28 | > 100 µM | O=C(O)c1c(-c2ccccc2)noc1-c1ccccc1
29 | 0.27 µM | Cc1onc(-c2ccccc2Cl)c1-c1ccccc1
